PMC6009911, “Inhibition of human cytochromes P450 2A6 and 2A13 by flavonoids, acetylenic thiophenes and sesquiterpene lactones from Pluchea indica and Vernonia cinerea” (Journal of Enzyme Inhibition and Medicinal Chemistry, 2017)
Where two headings read alike, the source gives them in different places. Marks after values point to notes of the source that are not given here.

Tests used:
[1] = biological target: T1, CYP2A13 (Homo sapiens, UniProt Q16696); experiment: Inhibition of CYP2A13-mediated coumarin 7-hydroxylation, enzymatic reconstitution assay; format: biochemical
T1 construct: made in house
T1 sequence (Q16696 1-494): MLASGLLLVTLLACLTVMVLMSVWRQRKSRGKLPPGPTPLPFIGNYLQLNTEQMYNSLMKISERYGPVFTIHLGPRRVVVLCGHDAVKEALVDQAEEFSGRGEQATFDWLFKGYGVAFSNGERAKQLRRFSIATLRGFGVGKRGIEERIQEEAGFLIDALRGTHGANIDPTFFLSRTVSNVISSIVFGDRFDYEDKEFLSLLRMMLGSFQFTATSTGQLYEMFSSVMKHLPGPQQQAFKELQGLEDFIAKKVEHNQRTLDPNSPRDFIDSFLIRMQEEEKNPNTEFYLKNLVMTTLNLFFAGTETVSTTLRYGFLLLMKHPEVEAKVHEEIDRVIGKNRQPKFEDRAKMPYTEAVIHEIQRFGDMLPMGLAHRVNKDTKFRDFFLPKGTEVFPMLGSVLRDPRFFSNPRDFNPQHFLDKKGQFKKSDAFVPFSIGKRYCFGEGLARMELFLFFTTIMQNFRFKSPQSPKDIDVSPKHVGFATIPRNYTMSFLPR
Procedure: Inhibitory effect of plant extracts, fractions, subfractions and constituents was determined by inhibition assay on CYP2A6- and CYP2A13-mediated coumarin 7-hydroxylation. The recombinant human CYP2A6, CYP2A13 and rat NADPH-dependent cytochrome P450 oxidoreductase (CYPOR) proteins were expressed, purified, according to the methods previously described. […] Rate of 7-hydroxycoumarin product formation was measured on spectrofluorometer (Shimadzu, Kyoto, Japan) at λex = 355 nm, λem = 460 nm. Inhibition effects were determined by incubation with extracts, fractions or purified compounds with coumarin substrate in the reaction mixture and calculated as per cent relative inhibition compared with vehicle control reaction[20] and IC50 values were calculated using GraphPad Prism 5 (GraphPad Software Inc., La Jolla, CA).
(§1) MBI requires NADPH and time to generate reactive intermediate as inhibitor and ultimately inactivates the enzyme. MBI was evaluated by pre-incubation with each test inhibitor in the reaction at different time periods (0, 10, 20 and 30 min) in the presence of NADPH for time-dependent assay, as described. The apparent inactivation constants, KI and Kinact, were obtained from double reciprocal plots of kobs versus inhibitor concentrations by linear regression analysis on GraphPad Prism 5. Methoxsalen was used as a control mechanism-based inhibitor for time- and NADPH-dependent inhibition assays.

[2] = biological target: T1, CYP2A13; experiment: Mechanism-based (time- and NADPH-dependent) inactivation of CYP2A13; format: biochemical; conditions: pre-incubation 0-30 min with NADPH
Procedure: as §1

[3] = biological target: T1, CYP2A13; experiment: Effects of trapping agents and dialysis on inactivation of CYP2A13; format: biochemical; conditions: CYP2A13 inhibition reaction mixture, probe coumarin, compound 10 µM
Procedure: as §1
To explore whether inactivation of CYP2As by thiophenes 9–11 and of CYP2A13 by hirsutinolides 5-8 could be reversed, the removal of reversible inhibitory compounds by dialysis and addition of trapping agents (GSH, semicarbazide, catalase or potassium ferricyanide) in the inhibition reaction mixture were performed. […] Similarly, mechanism-based inactivation of both CYP2A6 and CYP2A13 by thiophenes 9–11 could not be reversed (Table 3).

[4] = biological target: T1, CYP2A13; experiment: Inhibition of CYP2A13-mediated nicotine metabolism; format: biochemical; conditions: compound at IC50 value; nicotine 50 μM; 30 min; Supplemental Figure S2
Procedure: mixture with nicotine substrate (a final concentration of 50 μM) prior to initiation of each reaction with 50 μM NADPH at room temperature. Each reaction was terminated by addition of ice-cold acetronitrile at 30 min incubation and 50 pmol 7-hydroxycoumarin as internal standard was added. The reaction was centrifuged (12,000 rpm, 10 min, 4 °C) and 20 μl of each sample was analyzed on symmetry RP-C18 column (3.9×150 mm). Gradient condition was isocratic of 12% ACN: 2-propanol (7:3) in 10 mM potassium phosphate buffer (pH 7.4) at flow rate of 1 ml/min. The nicotine peak area in each reaction was compared with that of time zero. The enzyme activity was determined as percent substrate consumption over 30 min. The reactions were […]
(1 picture or pasted object on this page, not shown here)

[5] = biological target: T2, CYP2A6 (Homo sapiens, UniProt P11509); conditions: ref Prasopthum et al., 2015, cited from earlier work
T2 sequence (P11509 1-494): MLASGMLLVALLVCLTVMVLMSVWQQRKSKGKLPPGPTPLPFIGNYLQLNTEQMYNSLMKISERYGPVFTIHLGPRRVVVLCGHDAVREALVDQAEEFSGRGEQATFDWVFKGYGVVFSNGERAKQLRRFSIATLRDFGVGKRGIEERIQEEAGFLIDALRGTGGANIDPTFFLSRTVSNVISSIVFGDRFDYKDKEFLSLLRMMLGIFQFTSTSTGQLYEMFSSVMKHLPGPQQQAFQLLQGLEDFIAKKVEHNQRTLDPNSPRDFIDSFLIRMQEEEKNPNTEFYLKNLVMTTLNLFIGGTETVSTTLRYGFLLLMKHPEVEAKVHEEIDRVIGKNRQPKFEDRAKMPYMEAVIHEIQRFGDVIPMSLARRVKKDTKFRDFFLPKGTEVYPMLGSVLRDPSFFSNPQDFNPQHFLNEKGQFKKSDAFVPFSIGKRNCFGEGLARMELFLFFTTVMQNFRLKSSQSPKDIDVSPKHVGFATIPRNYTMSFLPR

[6] = biological target: T2, CYP2A6; parameters: made in house; conditions: ref Prasopthum et al., 2015, cited from earlier work
[7] = biological target: T2, CYP2A6; parameters: made in house; method as in PMID 25857233; conditions: cited from earlier work

C/C=C(\C)C(=O)OC1CC(C)C2(O)CCC(C)(/C=C3/OC(=O)C(COC(C)=O)=C31)O2 (stereo not drawn) [Hirsutinolide 6, 8α-tigloyloxyhirsutinolide-13-O-acetate]
CYP2A13 Mode of inhibition [1]: Mixed type
IC50 ([1]; 10-min pre-incubation in the presence of NADPH, read-out: IC50 CYP2A13 Pre-incubation): 7.66 ± 0.98 µM
IC50 ([1]; coincubation, coumarin 2 µM, read-out: IC50 CYP2A13 Coincubation): 20.9 ± 1.46 µM
Ki ([1]; coumarin 0–40 µM): 7.97 ± 0.78 µM
kinact [2]: 0.001 s⁻¹
KI (inactivation) ([2]; read-out: CYP2A13 KI (inactivation constant)): 3.6 ± 1.05 µM
activity at 10 µM ([3]; read-out: Per cent remaining activity, 70 μM K3Fe(CN)6): 25.9 ± 1.87%
activity at 10 µM ([3]; read-out: Per cent remaining activity, 2 mM GSH): 33.6 ± 4.8%
activity at 10 µM ([3]; read-out: Per cent remaining activity, 5 mM semicarbazide): 25 ± 3.81%
activity at 10 µM ([3]; read-out: Per cent remaining activity, 2000 U catalase): 26.6 ± 3.86%
activity at 10 µM ([3]; read-out: Per cent remaining activity, Dialysis (+) NADPH): 22.8 ± 1.13%
activity at 10 µM ([3]; read-out: Per cent remaining activity, Dialysis (−) NADPH): 85.3 ± 4.98%
activity at 10 µM ([3]; read-out: Per cent remaining activity, Pre-incubation): 28.4 ± 2.92%
inhibition of CYP2A13-mediated nicotine metabolism [4]: showed inhibition
KI (inactivation) ([5]; read-out: CYP2A6 KI (inactivation constant)): 15.4 ± 1.8 µM
CYP2A6 Kinact [5]: 0.03 ± 0.01^b
IC50 ([6]; 10-min pre-incubation in the presence of NADPH, read-out: IC50 CYP2A6 Pre-incubation): 20.8 ± 1.1 µM
IC50 ([6]; coincubation, coumarin 2 µM, read-out: IC50 CYP2A6 Coincubation): 37.8 ± 3.5 µM
Ki ([6]; coumarin 0–40 µM): 30.6 ± 1.5 µM
CYP2A6 Mode of inhibition [6]: Mixed type^b
inhibition of CYP2A6-mediated nicotine metabolism [7]: showed inhibition
